The text below walks through data of patent publication US9447090B2, “Imidazopyridine compounds” (Astellas Pharma Inc., priority 2011, dated 2016).

One assay concerns the target human purified sGC (Homo sapiens (Human), UniProt Q02108+Q02153). As to the kind of experiment: Measurement of sGC activation (enzyme): cGMP produced by human purified sGC, HTRF. It is filed as biochemical. The following applies: for sGC activation [%]: activation when the compound was not added taken as 100%, maximum concentration 100 μM, with SNP; for EC50: concentration giving 50% of maximum activation. On the procedure:
The activity of sGC was evaluated by measuring the amount of a cyclic guanosine monophosphate (cGMP) which is produced by human purified sGC.
A test compound was dissolved in DMSO and diluted 20-fold with ultrapure water. 2 μL of the diluted test compound solution (maximum concentration 100 μM), 2 μL of a substrate solution [0.5 μM TEBA, 0.03 μM dithiothreitol, 0.01 μM GTP, 0.04 μM MgCl2, and 0.03 μM sodium nitroprusside (SNP)], and 6 μL of a human enzyme suspension were added to 384-well plates (manufactured by Greiner Bio-One), and incubated at room temperature for one hour. The quantitative determination of cGMP is using HTRF which based on the competition between sample cGMP and fluorescent dye labeled cGMP for binding to a cGMP-specific antibody.
The test results of some Example compounds that are the compounds of the formula (I) of the present invention are shown below. The sGC activation of the test compound was calculated by taking the activation when the compound was not added as 100%. As compared with the activation when the compound was not added, it was recognized that a compound having a sGC activation of more than 300% has sGC activation. In addition, in Tables, Ex represents Example number in which the test compound is described and the sGC activation [%] represents sGC activation (%).
Furthermore, the EC50 [μM] value was calculated as another parameter for expressing sGC activation. This parameter indicates the concentration of the evaluated compound giving 50% of a maximum activation, which is calculated based on the maximum activation that compound of Example 102 is added, which is taken as 100%. In this connection, when a known sGC activator, YC-1 (Lificiguat, [5-(1-benzyl-1H-indazol-3-yl)-2-furyl]methanol), was evaluated according to the above Test Example 1, its maximum activation was 52% of the maximum activation for compound of Example 102. Further, “−” means no evaluation.
For orientation: Time-resolved FRET reads energy transfer from a long-lived donor to a nearby acceptor.

A further assay concerns Wistar male rats. Kind of assay: Blood flow increasing in vivo: hind limb blood flow in anesthetized rats, laser blood flow imaging. Particulars: rat hind limb, oral, 2 hours after administration. The method, then: The hind limb blood flow in rats anesthetized with pentobarbital was measured by the following test method. Wistar male rats were used. […] Thus prepared administration liquid was orally administered, and 2 hours later, the hind limb blood flow was measured using a laser blood flow imaging device (PIM II Integral) under anesthesia with intraperitoneal administration of 60 mg/kg of pentobarbital.

Setting [1] is: maximum activation of Example 102 taken as 100%.

Sequence of human purified sGC (Q02153 whole entry): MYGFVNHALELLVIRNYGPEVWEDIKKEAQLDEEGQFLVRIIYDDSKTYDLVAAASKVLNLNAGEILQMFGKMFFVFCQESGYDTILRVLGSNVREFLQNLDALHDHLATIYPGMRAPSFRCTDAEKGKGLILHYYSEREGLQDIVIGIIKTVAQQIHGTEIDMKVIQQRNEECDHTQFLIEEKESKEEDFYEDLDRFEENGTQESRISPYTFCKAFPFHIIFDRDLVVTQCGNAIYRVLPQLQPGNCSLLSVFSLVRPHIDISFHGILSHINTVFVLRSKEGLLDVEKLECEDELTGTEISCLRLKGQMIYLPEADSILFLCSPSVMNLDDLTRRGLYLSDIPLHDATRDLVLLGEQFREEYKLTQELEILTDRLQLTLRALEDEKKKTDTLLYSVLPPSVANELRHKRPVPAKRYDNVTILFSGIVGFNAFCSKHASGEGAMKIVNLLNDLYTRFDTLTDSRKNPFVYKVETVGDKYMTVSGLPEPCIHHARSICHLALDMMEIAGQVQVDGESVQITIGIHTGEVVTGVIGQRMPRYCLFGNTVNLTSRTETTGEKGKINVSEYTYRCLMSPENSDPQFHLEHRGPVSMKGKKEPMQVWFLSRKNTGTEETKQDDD
Sequence of human purified sGC (Q02108 whole entry): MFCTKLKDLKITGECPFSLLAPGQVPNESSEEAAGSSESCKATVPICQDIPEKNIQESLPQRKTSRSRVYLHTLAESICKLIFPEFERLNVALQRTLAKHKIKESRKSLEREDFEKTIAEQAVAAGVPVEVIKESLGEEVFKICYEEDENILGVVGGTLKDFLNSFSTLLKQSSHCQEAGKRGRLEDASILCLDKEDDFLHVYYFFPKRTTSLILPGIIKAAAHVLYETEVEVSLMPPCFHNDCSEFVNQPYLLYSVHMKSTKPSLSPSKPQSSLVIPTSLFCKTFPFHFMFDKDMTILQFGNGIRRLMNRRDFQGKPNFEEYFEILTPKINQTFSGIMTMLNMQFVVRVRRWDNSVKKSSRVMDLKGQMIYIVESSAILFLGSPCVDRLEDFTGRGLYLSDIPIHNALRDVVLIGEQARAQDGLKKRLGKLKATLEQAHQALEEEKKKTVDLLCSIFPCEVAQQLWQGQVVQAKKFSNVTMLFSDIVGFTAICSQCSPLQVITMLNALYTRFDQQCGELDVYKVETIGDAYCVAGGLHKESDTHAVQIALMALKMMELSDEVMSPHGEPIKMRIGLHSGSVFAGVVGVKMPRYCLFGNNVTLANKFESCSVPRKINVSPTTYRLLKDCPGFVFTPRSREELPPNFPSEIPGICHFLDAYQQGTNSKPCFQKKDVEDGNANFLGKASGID

As for `Cc1cccc2c1C[C@@H](C(=O)O)[C@@H]2NC(=O)c1c(C)nc2c(OCc3c(F)cccc3F)cccn12` [Ex 698], the “sGC activation [%]” value at human purified sGC is recorded as more than 1000%. At human purified sGC (setting [1]), the EC50 (in general, the midpoint of the concentration-response curve) turned out to be 19 µM. Further, the “blood flow increasing effect” value in the assay on Wistar male rats (dose of 10 mg/kg) was “exhibited a blood flow increasing effect”. On to `Cc1nc2c(OCC3CCCCC3)cccn2c1C(=O)N[C@@H](CO)c1ccccc1` [Ex 102], for which the response at human purified sGC (setting [1]) was half-maximal at 2.8 µM (EC50). Besides, the “blood flow increasing effect” value in the assay with Wistar male rats (dose of 10 mg/kg) was “exhibited a blood flow increasing effect”. As to `Cc1nc2c(OCCC(C)(C)C)cccn2c1C(=O)N[C@@H](CO)c1ccccc1.Cl` [Ex 205], the “sGC activation [%]” value on human purified sGC is recorded as more than 1000%. For the compound `Cc1nc2c(OCc3c(F)cccc3F)cccn2c1C(=O)N[C@@H](CO)C(C)C` [Ex 778], at human purified sGC (setting [1]), a half-maximal effect (EC50) was put at 6.3 µM. On to `Cc1nc2c(OCC3CCCCC3)cccn2c1C(=O)N[C@@H](CC(=O)O)CC(C)C` [Example 12, (3R)-3-({[8-(cyclohexylmethoxy)-2-methylimidazo[1,2-a]pyridin-3-yl]carbonyl}amino)-5-methylhexanoic acid], for which the EC50 at human purified sGC (setting [1]) was 3 µM. Further, the “blood flow increasing effect” value with Wistar male rats (dose of 10 mg/kg) is “exhibited a blood flow increasing effect”. The compound `Cc1nc2c(OCC3CCCCC3)cccn2c1C(=O)NC(CO)CO` [Ex 126] displayed an EC50 on human purified sGC (setting [1]) of 11 µM. The compound `Cc1nc2c(OCc3c(F)cccc3F)cccn2c1C(=O)N[C@@]1(c2ccccc2)C[C@@H](O)[C@@H](O)C1` [Ex 766] registered an EC50 at human purified sGC (setting [1]) of 17 µM. Still for that read-out and setting: the value for `Cc1nc2c(OCC3CCCCC3)cccn2c1C(=O)N[C@H]1c2c(F)cccc2C[C@@H]1C(=O)O` [Ex 705] was 11 µM. In turn, `Cc1nc2c(OCc3c(F)cccc3F)cccn2c1C(=O)NC(CO)(CO)c1ccccn1` [Ex 834] gave a 50% effective concentration (EC50) at human purified sGC (setting [1]) of 4.1 µM. The “blood flow increasing effect” value in the assay with Wistar male rats (dose of 10 mg/kg) is on record as “exhibited a blood flow increasing effect”.

In the case of `Cc1nc2c(OCC3CCCCC3)cccn2c1C(=O)N[C@@H](CC(=O)O)c1ccccc1` [Ex 251], at human purified sGC, the “sGC activation [%]” value was more than 1000%. The compound further showed an EC50 at human purified sGC (setting [1]) of 6.1 µM. Besides, the “blood flow increasing effect” value in the assay with Wistar male rats (dose of 10 mg/kg) is reported as “exhibited a blood flow increasing effect”. The compound `Cc1nc2c(OCc3c(F)cccc3F)cccn2c1C(=O)N[C@H](c1ccccc1)[C@H](O)CO` [Ex 760] had an EC50 at human purified sGC (setting [1]) of 5.9 µM. In addition, in the assay on Wistar male rats (dose of 10 mg/kg), the “blood flow increasing effect” value is “exhibited a blood flow increasing effect”. `Cc1nc2c(OCc3c(F)cccc3F)cccn2c1C(=O)NC(C)(C)CO` [Ex 772]: the EC50 on human purified sGC (setting [1]) was 5.4 µM. Same read-out and setting: the figure for `Cc1nc2c(OCc3c(F)cccc3F)cccn2c1C(=O)N[C@H](C)CO` [Ex 776] is 15 µM. For `OCc1ccc(-c2nn(Cc3ccccc3)c3ccccc23)o1` [YC-1, [5-(1-benzyl-1H-indazol-3-yl)-2-furyl]methanol, reference compound], on human purified sGC (maximum activation of Example 102 taken as 100%, read-out: maximum activation relative to the maximum activation for compound of Example 102), the Emax was determined as 52%. Take `Cc1nc2c(OCc3c(F)cccc3F)cccn2c1C(=O)N[C@@H]1c2ccccc2[C@@H](O)[C@H]1O` [Ex 759]: the EC50 at human purified sGC (setting [1]) worked out at 2.2 µM. Besides, the “blood flow increasing effect” value in the assay with Wistar male rats (dose of 10 mg/kg) is “exhibited a blood flow increasing effect”. In the same order, the values of `Cc1nc2c(OCC3CCCCC3)cccn2c1C(=O)N[C@@H](CC(=O)O)CC1CCC1` [Ex 179] are 2.7 µM and “exhibited a blood flow increasing effect”. `Cc1nc2c(OCc3cccc(F)c3F)cccn2c1C(=O)NC(CO)(CO)c1ccccc1` [Ex 829]: the response at human purified sGC (setting [1]) was half-maximal at 2.7 µM (EC50). `Cc1nc2c(OCC3CCCCC3)cccn2c1C(=O)N[C@@H]1c2ccc(F)cc2C[C@H]1C(=O)O` [Ex 706]: on human purified sGC, the “sGC activation [%]” value is listed as more than 1000%. At human purified sGC (setting [1]), this compound returned an EC50 of 4.7 µM. Moreover, the “blood flow increasing effect” value in the assay with Wistar male rats (dose of 10 mg/kg) is on record as “exhibited a blood flow increasing effect”. In the same order, the values of `Cc1nc2c(OCC3CCCCC3)cccn2c1C(=O)N[C@@H]1c2c(F)cccc2C[C@H]1C(=O)O` [Ex 704] are more than 1000%, 11 µM and “exhibited a blood flow increasing effect”. At human purified sGC (setting [1]), `Cc1nc2c(OCc3ccccc3F)cccn2c1C(=O)N[C@@H]1c2ccccc2[C@H](O)[C@H]1O` (stereo in doubt) [Ex 798] returned an EC50 of 8.6 µM. `Cc1cccc2c1C[C@@H](C(=O)O)[C@@H]2NC(=O)c1c(C)nc2c(OCC3CCCCC3)cccn12` [Ex 693]: the “sGC activation [%]” value on human purified sGC is on record as more than 1000%. The same compound returned an EC50 at human purified sGC (setting [1]) of 17 µM. The “blood flow increasing effect” value in the assay on Wistar male rats (dose of 10 mg/kg) is given as “exhibited a blood flow increasing effect”. Take `Cc1nc2c(OCC3CCCCC3)cccn2c1C(=O)N[C@@H]1c2ccccc2C[C@H]1C(=O)O` [Ex 321]: the “sGC activation [%]” value at human purified sGC is on record as more than 1000%. This compound also had an EC50 at human purified sGC (setting [1]) of 4.5 µM. In the assay with Wistar male rats (dose of 10 mg/kg), the “blood flow increasing effect” value is “exhibited a blood flow increasing effect”. Compound `Cc1nc2c(OCc3c(F)cccc3F)cccn2c1C(=O)N[C@@H](CO)c1ccccc1.Cl` [Ex 119] displayed a concentration giving a half-maximal response (EC50) on human purified sGC (setting [1]) of 2.9 µM. For the same compound, the “blood flow increasing effect” value in the assay on Wistar male rats (dose of 10 mg/kg) is “exhibited a blood flow increasing effect”. For `Cc1nc2c(OCC3CCCCC3)cccn2c1C(=O)N[C@H]1CCN(C)C1` [Ex 341], the “sGC activation [%]” value on human purified sGC is reported as 980%. At human purified sGC (setting [1]), this compound yielded an EC50 of 6.9 µM. Also, the “blood flow increasing effect” value with Wistar male rats (dose of 30 mg/kg) is “exhibited a blood flow increasing effect”. Compound `Cc1nc2c(OCc3ccccc3F)cccn2c1C(=O)NC(CO)(CO)c1ccccc1` [Ex 828] gave an EC50 at human purified sGC (setting [1]) of 7.6 µM.

As to `Cc1nc2c(OCc3c(F)cccc3F)cccn2c1C(=O)N[C@@H]1c2ccccc2C[C@H]1O.Cl` [Ex 430], the midpoint of the response at human purified sGC (setting [1]), the EC50, lay at 2.6 µM. Also, the “blood flow increasing effect” value with Wistar male rats (dose of 10 mg/kg) is “exhibited a blood flow increasing effect”. `Cc1nc2c(OCC3CCCCC3)cccn2c1C(=O)N[C@@H](C)c1cccc(C(=O)O)c1` [Ex 323] came in with a concentration giving a half-maximal response (EC50) at human purified sGC (setting [1]) of 13 µM. Turning to `Cc1nc2c(OCc3c(F)cccc3F)cccn2c1C(=O)N[C@@H](CO)c1cccc(F)c1.Cl` [Ex 436], the “sGC activation [%]” value at human purified sGC is on record as more than 1000%.

On to `Cc1nc2c(OCc3c(F)ccc(F)c3F)cccn2c1C(=O)N[C@@H](CO)c1ccccc1.Cl` [Ex 244], for which, at human purified sGC, the “sGC activation [%]” value was more than 1000%. Besides, the “blood flow increasing effect” value with Wistar male rats (dose of 30 mg/kg) is listed as “exhibited a blood flow increasing effect”. Take `Cc1nc2c(OCC3CCCCC3)cccn2c1C(=O)N[C@H]1CCCN(C)C1` [Ex 226]: the “sGC activation [%]” value at human purified sGC was more than 1000%. For the same compound, the midpoint of the response at human purified sGC (setting [1]), the EC50, lay at 6.7 µM. As to `Cc1nc2c(OCc3c(F)ccc(F)c3F)cccn2c1C(=O)N[C@@H]1c2ccccc2C[C@H]1C(=O)O` [Ex 702], the “sGC activation [%]” value at human purified sGC was more than 1000%. The same compound gave a concentration for a half-maximal effect (EC50) at human purified sGC (setting [1]) of 6.2 µM. Further, in the assay on Wistar male rats (dose of 10 mg/kg), the “blood flow increasing effect” value is on record as “exhibited a blood flow increasing effect”. On to `Cc1nc2c(OCc3c(F)cccc3F)cccn2c1C(=O)N[C@]1(c2ccccc2)C[C@@H](O)[C@@H](O)C1` [Ex 767], for which the EC50 at human purified sGC (setting [1]) was found to be 3 µM. Also, the “blood flow increasing effect” value with Wistar male rats (dose of 10 mg/kg) is recorded as “exhibited a blood flow increasing effect”. Take `Cc1nc2c(OCc3c(F)cccc3F)cccn2c1C(=O)NC(CO)(CO)c1ccccc1.Cl` [Ex 424]: on human purified sGC, the “sGC activation [%]” value is more than 1000%. Besides, the EC50 on human purified sGC (setting [1]) was 2.4 µM. Besides, in the assay on Wistar male rats (dose of 10 mg/kg), the “blood flow increasing effect” value is reported as “exhibited a blood flow increasing effect”. In the case of `Cc1nc2c(OCc3c(F)cccc3F)cccn2c1C(=O)N[C@H]1CCCN(S(N)(=O)=O)C1` [Ex 247], the EC50 on human purified sGC (setting [1]) turned out to be 2.4 µM. In the assay on Wistar male rats (dose of 10 mg/kg), the “blood flow increasing effect” value is listed as “exhibited a blood flow increasing effect”. As for `Cc1nc2c(OCc3cccc(F)c3F)cccn2c1C(=O)N[C@@H]1c2ccccc2[C@H](O)[C@H]1O` (stereo in doubt) [Ex 797], the EC50 on human purified sGC (setting [1]) worked out at 8.9 µM.

As to `Cc1nc2c(OCc3c(F)cccc3F)cccn2c1C(=O)N[C@H]1CCCNC1` [Ex 822], at human purified sGC (setting [1]), the EC50 came out at 5.6 µM. On to `Cc1nc2c(OCc3c(F)cccc3F)cccn2c1C(=O)N[C@@H]1c2c(F)cccc2C[C@H]1C(=O)O` [Ex 699], for which the “sGC activation [%]” value at human purified sGC is more than 1000%. In addition, it took 15 µM to reach a half-maximal effect at human purified sGC (setting [1]) (EC50). The “blood flow increasing effect” value with Wistar male rats (dose of 10 mg/kg) is “exhibited a blood flow increasing effect”.
